One test relates to indicator strains. The test is described as follows: Deferred antagonism assays, various indicator strains (summary). The class given is cell-based. The note with it: in general / against the strains tested. The method, boiled down:
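Producer strains were replicated on GM17 or GM17 x-gal agar, grown overnight, then overlaid with GM17, BHI, TS or MH soft agar (0.75% w/v) seeded with the indicator strain. Zone size was taken as the clearing diameter minus the diameter of bacterial growth (5 mm).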

For another test, the system named is L. plantarum CBC6. The test is described as follows: Deferred antagonism assay. The format is cell-based, Lactobacillus plantarum. The arrangement: key: + = Enhanced bioactivity relative to control; − = Bioactivity equal to or less than control; NA = no activity evident. The conditions noted are these: producing strain. The method, boiled down: (§1)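 L. lactis NZ9800 strains expressing nisin A hinge variants were replicated or spotted on GM17 agar, grown overnight, then overlaid with 0.75% w/v agar seeded with indicator. Zone size is the clearing diameter minus 5 mm colony growth.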

The subject of the next test is S. aureus CBC4. Kind of test: Deferred antagonism assay. The format is cell-based. The arrangement: key: + = Enhanced bioactivity relative to control; − = Bioactivity equal to or less than control; NA = no activity evident. The conditions noted are these: producing strain. The method, boiled down: as §1
Another test concerns L. lactis CBC8. The test is described as follows: Deferred antagonism assay. The format is cell-based. The arrangement: key: + = Enhanced bioactivity relative to control; − = Bioactivity equal to or less than control; NA = no activity evident. The note with it: producing strain. A digest of the protocol: as §1
The subject of the next test is L. lactis CBC7. Kind of test: Deferred antagonism assay. The note with it: producing strain. The format is cell-based. The arrangement: key: + = Enhanced bioactivity relative to control; − = Bioactivity equal to or less than control; NA = no activity evident. A digest of the protocol: as §1
Test [1] deals with Staph. aureus ST528 (MRSA). Kind of test: Deferred antagonism assay. The conditions noted are these: producing strain, diameter of zone minus diameter of bacterial growth (5 mm), average of duplicates. The class given is cell-based. Here is the method: (§2) Deferred antagonism assays were performed by replicating strains on GM17 or GM17 x-gal agar plates and allowing them to grow overnight before overlaying with either GM17/BHI/TS/MH agar (0.75% w/v agar) seeded with the appropriate indicator strain. Zone size was calculated as the diameter of the zone of clearing minus the diameter of bacterial growth (5 mm) For higher throughput screening of N20PXX, XM21VX, XXK22T and XXX banks deferred antagonism assays were performed by replicating strains using a 96 pin replicator (Boekel) or spotting 5 μl of a fresh overnight culture on GM17 agar plates and allowing them to grow overnight. […] Additional sets of indicators were employed to further assess/reassess the bioactivity of a number of strains. […] For well-diffusion assays molten agar was cooled to 48° C. and seeded with the appropriate indicator strain. The inoculated medium was rapidly transferred into sterile Petri plates in 50 ml volumes, allowed to solidify and dried. Wells (4.6 mm in diameter) were then made in the seeded plates. Purified nisin and mutant nisins were resuspended in 0.005% acetic acid, serially diluted, 50 μl volumes were dispensed into the aforementioned wells and the plates incubated at 37° C. overnight. Bioactivity was expressed as arbitrary units/ml (AU/ml) and calculated as the reciprocal of the highest dilution that gave a definite zone multiplied by the conversion factor (i.e. 20 when 50 μl was used) (Ryan et al., 1996).
(§3) As a consequence of the enhanced activities of K22T and K22S, a more in-depth investigation of this region was carried out. Saturation mutagenesis was undertaken to create a bank of nisin A hinge derivatives containing the vast majority of possible amino acid substitutions for each position. Although pPTPL was used successfully for random mutagenesis, its relatively large size of approx 10.5 kb was considered unsuitable for the complete plasmid PCR amplification approach utilized for saturation mutagenesis. A smaller (approx 6 kb) E. coli-L. lactis shuttle vector pCI372 was considered to be potentially more useful. Its suitability with respect to the in trans expression of nisA was confirmed by the ability of pDFO5 to restore the nisin positive phenotype. Saturation mutagenesis was performed on each codon using pDF05 and oligonucleotides (Table 5) that replace the specific codon with a NNK triplet, potentially encoding all 20 standard amino acids. Following complete plasmid amplification and introduction into the intermediate Top10 host, sequence analysis of a pooled bank of pDF05 derivatives confirmed randomization. Introduction of these variants into L. lactis NZ9800 allowed the expression of mutant nisin A peptides for further analysis. […] 46 residue conversions were isolated. All strains, regardless of bioactivity, were assessed with a view to comprehensively assessing the consequences of each individual hinge alteration.
(§4) Values are an average of duplicate experiments and represent zone size (diameter of zone minus diameter of bacterial growth (i.e. 5 mm) relative to that of the NZ9800 pCI372nisA control. X=Mutants not identified.

In test [2] the test system is Strep. agalactiae ATCC13813. Kind of test: Deferred antagonism assay. The note with it: producing strain, diameter of zone minus 5 mm, average of duplicates. The format is cell-based. Here is the method: as §2, §3, §4
In a further test the test system is Staph. aureus DPC5245. The test is described as follows: Deferred antagonism assay. The format is cell-based. The conditions noted are these: producing strain; diameter of zone minus 5 mm; average of duplicates; St. aureus DPC5245. The method, then:
as §2, §3, §4

In a further test the test system is C. sporogenes CBC5. The test is described as follows: Deferred antagonism assay. The class given is cell-based, Clostridium sporogenes. The arrangement: key: + = Enhanced bioactivity relative to control; − = Bioactivity equal to or less than control; NA = no activity evident. The note with it: producing strain.
For another test, the system named is L. monocytogenes CBC2. Kind of test: Deferred antagonism assay. The class given is cell-based, Listeria monocytogenes. More on the design: key: + = Enhanced bioactivity relative to control; − = Bioactivity equal to or less than control; NA = no activity evident. The note with it: producing strain; L. mono CBC2. The method, boiled down:
as §1

The test system of a further test is L. monocytogenes CBC3. Kind of test: Deferred antagonism assay. The format is cell-based, Listeria monocytogenes. More on the design: key: + = Enhanced bioactivity relative to control; − = Bioactivity equal to or less than control; NA = no activity evident. The conditions noted are these: producing strain; L. mono CBC3. The method, boiled down: as §1
The subject of the next test is L. monocytogenes CBC1. Kind of test: Deferred antagonism assay. The conditions noted are these: producing strain; L. mono CBC1. The class given is cell-based, Listeria monocytogenes. The arrangement: key: + = Enhanced bioactivity relative to control; − = Bioactivity equal to or less than control; NA = no activity evident. A digest of the protocol:
as §1

Ends that are not written are not given here.

As to “K22D: nisin A derivative, hinge substitution K22D; peptide not detected by CMS (ITSISLCTPGCKTGALMGCNMDTATCHCSIHVSK; cysteine pairing not given here; also: lantibiotic nisin-A; UniProt P13068 24-57, looked up, variant K22D)”, the “bioactivity of the producing strain, in words” value (“bioactivity … in words” for short) in the test on indicator strains is “devoid of bioactivity”. For the same substance, the “Bioactivity relative to control” value with L. plantarum CBC6, in the test with S. aureus CBC4, in the test on L. lactis CBC8, in the test on L. lactis CBC7, with C. sporogenes CBC5 and in the test with L. monocytogenes CBC2 was “−” throughout. Also, the “Bioactivity relative to control” value in the test with L. monocytogenes CBC3 and in the test on L. monocytogenes CBC1 was “−” in each case. For the same substance, the “zone size relative to that of the NZ9800 pCI372nisA control” value (“zone size relative to that” for short) (in test [1]; in test [2]; in the test with Staph. aureus DPC5245) was 0% each time.
On to “M21E: nisin A derivative, hinge substitution M21E (ITSISLCTPGCKTGALMGCNEKTATCHCSIHVSK; cysteine pairing not given here; also: lantibiotic nisin-A; UniProt P13068 24-57, looked up, variant M21E)”, for which, in the test on indicator strains, the “bioactivity … in words” value is on record as “loss of bioactivity”. Moreover, the “Bioactivity relative to control” value with L. plantarum CBC6, with S. aureus CBC4, in the test with L. lactis CBC8, in the test with L. lactis CBC7, with C. sporogenes CBC5 and in the test on L. monocytogenes CBC2 was “−” each time. Besides, the “Bioactivity relative to control” value in the test on L. monocytogenes CBC3 and with L. monocytogenes CBC1 was “−” in each case. In addition, the “zone size relative to that” value (in test [1]; in test [2]; in the test on Staph. aureus DPC5245) was 0% in each case.
As for “M21P: nisin A derivative, hinge substitution M21P (ITSISLCTPGCKTGALMGCNPKTATCHCSIHVSK; cysteine pairing not given here; also: lantibiotic nisin-A; UniProt P13068 24-57, looked up, variant M21P)”, the “Bioactivity relative to control” value with L. plantarum CBC6, in the test with S. aureus CBC4, in the test with L. lactis CBC8, in the test with L. lactis CBC7, in the test on C. sporogenes CBC5 and with L. monocytogenes CBC2 was “−” in each case. Besides, the “Bioactivity relative to control” value in the test on L. monocytogenes CBC3 and in the test on L. monocytogenes CBC1 was “−” throughout. Besides, the “zone size relative to that” value in test [1] is listed as 40%; in test [2], 0%; in the test with Staph. aureus DPC5245, 32%.
For the substance “M21W: nisin A derivative, hinge substitution M21W (ITSISLCTPGCKTGALMGCNWKTATCHCSIHVSK; cysteine pairing not given here; also: lantibiotic nisin-A; UniProt P13068 24-57, looked up, variant M21W)”, the “Bioactivity relative to control” value in the test with L. plantarum CBC6, with S. aureus CBC4, in the test on L. lactis CBC8, in the test on L. lactis CBC7, in the test on C. sporogenes CBC5 and with L. monocytogenes CBC2 was “−” each time. For the same substance, the “Bioactivity relative to control” value in the test on L. monocytogenes CBC3 and in the test on L. monocytogenes CBC1 was “−” each time. Besides, the entries for the “zone size relative to that” value (in [1]; in test [2]; in the test on Staph. aureus DPC5245) were 12%, 0% and 14%, respectively.
Turning to “N20L: nisin A derivative, hinge substitution N20L (ITSISLCTPGCKTGALMGCLMKTATCHCSIHVSK; cysteine pairing not given here; also: lantibiotic nisin-A; UniProt P13068 24-57, looked up, variant N20L)”, in the test with indicator strains, the “bioactivity … in words” value is given as “retention of relatively high levels of bioactivity”. Further, the “Bioactivity relative to control” value with L. plantarum CBC6, in the test with S. aureus CBC4, in the test on L. lactis CBC8, in the test on L. lactis CBC7, in the test with C. sporogenes CBC5 and in the test with L. monocytogenes CBC2 was “−” throughout. Besides, the “Bioactivity relative to control” value with L. monocytogenes CBC3 and with L. monocytogenes CBC1 was “−” in each case. For the same substance, the results for the “zone size relative to that” value (in test [1]; in [2]; with Staph. aureus DPC5245) were 43%, 69% and 69.5%, respectively.
As to “N20V: nisin A derivative, hinge substitution N20V (ITSISLCTPGCKTGALMGCVMKTATCHCSIHVSK; cysteine pairing not given here; also: lantibiotic nisin-A; UniProt P13068 24-57, looked up, variant N20V)”, the “bioactivity … in words” value in the test on indicator strains is given as “reduced bioactivity levels”. Also, the “Bioactivity relative to control” value in the test on L. plantarum CBC6, in the test with S. aureus CBC4, in the test with L. lactis CBC8, in the test with L. lactis CBC7, with C. sporogenes CBC5 and with L. monocytogenes CBC2 was “−” each time. Moreover, the “Bioactivity relative to control” value in the test on L. monocytogenes CBC3 and in the test on L. monocytogenes CBC1 was “−” each time. Further, the “zone size relative to that” value in [1] was found to be 68%; in [2], 63%; in the test with Staph. aureus DPC5245 it was 77%.
